Series [1] can be described thus: Transcellular permeation assay (Caco-2 transwell). The conditions noted are these: human. Format: in vitro ADME. How it is done:
(§1) Caco-2 cells were seeded at a density of 35,000 cells per well in the apical chamber of a 24 well Corning® HTS® transwell plate, and left to adhere for 24 hours. After this time, culture media was replenished by removal with an aspirator, also removing those cells that had not adhered. Culture media used was DMEM supplemented with 15% fetal bovine serum, which was continually replenished every other day for a three-week period.
(§2) In different wells the apical or basolateral chambers (donor chambers) were loaded with drug or nanoemulsion containing media, with the opposite chambers (acceptor chambers) of those wells being filled with fresh drug-free media. Samples were taken from both apical and basolateral chambers from all wells at 1, 2, and 24 hour time periods. Samples were then immediately frozen at −40° C. for subsequent batch analysis via high performance liquid chromatography to determine the concentration of the drug in the sample.
(§3) The apparent permeability (Papp) was calculated using the following equation: Papp=((A/T)*(V))/(S*0.3).
(§4) Where A is the concentration in the sample, T is the time in seconds at which the sample was collected, V is the total volume of sample contained in the chamber being sampled, S is the initial starting concentration of the drug and 0.3 is the surface area in cm^2 of the transwell insert on which the Caco-2 cells are grown.
Background: Passage across Caco-2 layers is used to estimate intestinal permeability.

Series [2] is described as follows: Solubility of drug in castor oil. It counts as physicochemical. As to the method:
Non-limiting examples of some suitable drugs include for example the antiretroviral drugs Lopinavir (LPV) and Efavirenz (EFV), and the antibiotics Rifampicin and Erythromycin. Practically, approximately 50 mg/ml Efavirenz or 25 mg/ml Lopinavir can be dissolved in castor oil. Stock solutions of drug dissolved in castor oil were produced (50 mg/ml of Efavirenz in castor oil, or 25 mg/ml of Lopinavir in the same oil).

Series [3] deals with final common pathway. The experiment in a line: Plasma coagulation: thrombin time (TT). The arrangement: species or system Human. The note with it: 37° C., 30 minutes, 0.16-40 μg/mL. How it is done: (§5) The impact of nanoemulsion formulations on plasma coagulation was also assessed. Human blood from three donors was collected by venepuncture into tubes anti-coagulated with sodium citrate; blood was used within one hour of collection. Test plasma was prepared by centrifuging blood at 2500×g, at 21° C., for 10 minutes with the resultant plasma collected and pooled. Pooled plasma was stable at room temperature for 8 hours. Nanoemulsion samples were prepared at 10× the required final concentration to accommodate dilution when added to test plasma. Concentrations and subsequent dilutions were based on the concentration of Efavirenz contained within the samples with dilutions of blank nanoemulsion diluted in the same fashion. Final concentrations tested were 40 μg/mL, 4 μg/mL, 0.8 μg/mL and 0.16 μg/mL. […]
(§6) Cuvettes were placed into A, B, C and D test rows on the coagulometer and one metal ball added into each cuvette (warmed for at least 3 minutes prior to use). […] Once incubation time was complete coagulation reagent was added to each cuvette and coagulation time recorded. Percentage coefficient of variation was calculated for each control and test samples according to the following formula: % CV=SD/Mean×100%. […] Data was expressed as a percentage of the coagulation time recorded for plasma with no nanomaterial present (plasma only control).

Series [4] relates to extrinsic pathway. The experiment in a line: Plasma coagulation: prothrombin time (PT). The arrangement: species or system Human. The conditions noted are these: 37° C., 30 minutes, 0.16-40 μg/mL. How it is done: as §5, §6
Series [5] has as its system intrinsic pathway. The experiment in a line: Plasma coagulation: activated partial thromboplastin time (APTT). The arrangement: species or system Human. As to the method:
as §5, §6

In series [6] the test system is Caco-2 cells. The experiment in a line: Transcellular permeation assay (Caco-2 transwell). It counts as in vitro ADME. The note with it: 10 μM. As to the method:
as §1, §2, §3, §4

[7] abbreviates: Caco-2, 2 hours, read-out: Papp apical to basolateral.

With `Cc1cccc(C)c1OCC(=O)N[C@@H](Cc1ccccc1)[C@@H](O)C[C@H](Cc1ccccc1)NC(=O)[C@H](C(C)C)N1CCCNC1=O` [Lopinavir], in series [1] (Caco-2, 1 hour, read-out: Papp apical to basolateral), the Papp A→B at 1 h, 10 μM was found to be 8.4 ×10⁻⁶ cm/s. The Papp B→A at 1 h, 10 μM in series [1] (Caco-2, 1 hour, read-out: Papp basolateral to apical) stood at 9.3 ×10⁻⁶ cm/s. Besides, in series [1] (setting [7]), the Papp A→B at 2 h, 10 μM is 2.7 ×10⁻⁶ cm/s. The Papp B→A at 2 h, 10 μM in series [1] (Caco-2, 2 hours, read-out: Papp basolateral to apical) was 13 ×10⁻⁶ cm/s. In addition, the “amount that can be dissolved in castor oil” value in series [2] was approximately 25 mg/mL.

With `O=C1Nc2ccc(Cl)cc2[C@@](C#CC2CC2)(C(F)(F)F)O1` [Efavirenz], the “impact on thrombin time (TT)” value in series [3] was “No impact”. In addition, the “impact on prothrombin time (PT)” value in series [4] was “No impact”. The “impact on APTT coagulation time” value in series [5] is listed as “did not impact on coagulation time at all”. For the same compound, the “Papp basolateral to apical” value in series [6] (1 hour) and in series [6] (2 hours) was “increased compared to EFV nanoemulsion” in each case. For the same compound, in series [1] (setting [7]), the Papp A→B at 2 h, 10 μM was found to be 8.2 ×10⁻⁶ cm/s. Further, the Papp A→B at 24 h, 10 μM in series [1] (Caco-2, 24 hours, read-out: Papp apical to basolateral) came out at 0.7 ×10⁻⁶ cm/s. The “amount that can be dissolved in castor oil” value in series [2] is “approximately 50 mg/ml”.

The values are drawn from patent US10463618B2, “Nanoemulsions” (The University of Liverpool, priority 2015, dated 2019).
